This note sets out measurements from patent US20230416256A1, “SMALL MOLECULE INHIBITORS OF NF-kB INDUCING KINASE” (Janssen Pharmaceutica NV, priority 2020, published 2023).

Read-outs that look alike come from different tables or passages of the source. Some results are limits rather than exact numbers.

Assay [1] addresses recombinant human NF-kappaB-inducing kinase (NIK/MAP3K14) (Homo sapiens, UniProt Q99558). In words: Inhibition of auto-phosphorylation of recombinant human NIK/MAP3K14 activity (AlphaScreen). It counts as biochemical. The following applies: GST-tagged NIK/MAP3K14 1 nM, 5 μM ATP, 2 h at 25° C.; average of values obtained. Put shortly:
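GST-tagged NIK (1 nM) auto-phosphorylated for 2 h at 25 °C with 5 μM ATP in 50 mM Tris pH 7.5, 5 mM MgCl2, 0.7% DMSO. Phospho-Ser176/180 was detected by AlphaScreen using an anti-phospho-IKK antibody. IC50 came from sigmoidal fits of % inhibition versus high (full activity) and low (no ATP) controls.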

For assay [2], the system named is p-IKKα levels in L363 (NIK translocated multiple myeloma) cells. In words: Effect of compounds on p-IKKα levels in L363 cells (AlphaLISA SureFire Ultra). The assay is classed as cell-based, human. The following applies: 10 μM MG132, 6 h, average of values obtained, read-out: Assay 2 IC50. Put shortly: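 L363 cells were BAFF-stimulated overnight (250 ng/ml) in DMEM/0.5% BSA, then exposed to an 11-point 1:3 compound series (0.3% DMSO) with BAFF and 10 μM MG132 for 6 h at 37 °C. p-IKKα (Ser176/180) was measured by AlphaLISA SureFire Ultra. IC50 was fitted from % inhibition normalized to stimulated and unstimulated controls.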

The mark [3] stands for this setting: Homo sapiens, L-363, 6 h, 250 ng/ml BAFF stimulated.
[4] abbreviates: Homo sapiens, L-363, 250 ng/ml BAFF stimulated.

recombinant human NF-kappaB-inducing kinase (NIK/MAP3K14), sequence (Q99558 whole entry): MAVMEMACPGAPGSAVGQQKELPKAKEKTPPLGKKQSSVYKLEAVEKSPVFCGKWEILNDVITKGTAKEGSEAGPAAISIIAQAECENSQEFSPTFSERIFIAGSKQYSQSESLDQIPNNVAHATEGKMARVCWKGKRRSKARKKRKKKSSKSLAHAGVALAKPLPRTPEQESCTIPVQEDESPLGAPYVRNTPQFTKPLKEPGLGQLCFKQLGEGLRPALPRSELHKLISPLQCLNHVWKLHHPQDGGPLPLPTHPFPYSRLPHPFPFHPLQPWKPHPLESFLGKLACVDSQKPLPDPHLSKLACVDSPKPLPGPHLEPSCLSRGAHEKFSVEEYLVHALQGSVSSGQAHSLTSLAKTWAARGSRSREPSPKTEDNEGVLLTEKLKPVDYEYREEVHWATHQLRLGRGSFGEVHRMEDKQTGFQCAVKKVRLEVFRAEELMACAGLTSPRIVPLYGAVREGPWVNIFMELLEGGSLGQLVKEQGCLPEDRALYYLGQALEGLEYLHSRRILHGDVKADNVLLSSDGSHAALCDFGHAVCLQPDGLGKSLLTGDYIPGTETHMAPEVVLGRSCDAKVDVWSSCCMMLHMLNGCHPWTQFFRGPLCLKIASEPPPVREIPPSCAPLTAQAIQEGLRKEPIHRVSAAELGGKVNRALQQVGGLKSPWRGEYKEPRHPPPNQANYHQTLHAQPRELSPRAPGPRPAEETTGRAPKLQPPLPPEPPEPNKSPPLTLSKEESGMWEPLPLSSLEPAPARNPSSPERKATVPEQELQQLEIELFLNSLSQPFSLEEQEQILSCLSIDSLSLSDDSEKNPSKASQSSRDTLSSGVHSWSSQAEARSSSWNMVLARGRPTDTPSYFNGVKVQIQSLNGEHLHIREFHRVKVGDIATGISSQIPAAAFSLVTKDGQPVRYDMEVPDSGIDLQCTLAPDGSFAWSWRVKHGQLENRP

For `CS(=O)(=O)c1cnc2[nH]cc(-c3nc(-c4cccc([C@]5(O)CCn6ccnc65)c4)cs3)c2c1` [Example 28, (R)-7-(3-(2-(5-(Methylsulfonyl)-1H-pyrrolo[2,3-b]pyridin-3-yl)thiazol-4-yl)phenyl)-6,7-dihydro-5H-pyrrolo[1,2-a]imidazol-7-ol], the figures for the IC50 in assay [1] and in assay [2] (setting [3]) were not above 0.1 µM and 0.1 to 0.5 µM, respectively.

Consider `CN1CC[C@@](O)(c2cccc(-c3cnc(-c4c[nH]c5ncccc45)n3C)c2)C1=O` [Example 120, (R)-3-hydroxy-1-methyl-3-(3-(1-methyl-2-(1H-pyrrolo[2,3-b]pyridin-3-yl)-1H-imidazol-5-yl)phenyl)pyrrolidin-2-one], for which the IC50 in assay [1] and in assay [2] (setting [4]) was more than 0.5 µM each time.

Turning to `CN1CC[C@@](O)(c2cccc(-c3csc(-c4c[nH]c5ncccc45)n3)c2)C1=O` (single isomer, unassigned) [Example 47], the values for the IC50 in assay [1] and in assay [2] (setting [4]) were not above 0.1 µM and 0.1 to 0.5 µM, respectively.

For `O[C@@]1(c2cccc(-c3csc(-c4c[nH]c5ncccc45)n3)c2)COc2cccnc21` [Example 16, (R)-3-(3-(2-(1H-Pyrrolo[2,3-b]pyridin-3-yl)thiazol-4-yl)phenyl)-2,3-dihydrofuro[3,2-b]pyridin-3-ol], the IC50 in assay [1] is not above 0.1 µM; in assay [2] (250 ng/ml BAFF stimulated) it was 0.1 to 0.5 µM.

Consider `O[C@]1(c2cccc(-c3nc(-c4c[nH]c5ncccc45)cs3)c2)CCc2cccnc21` (single isomer, unassigned) [Example 23], for which the IC50 was 0.1 to 0.5 µM in assay [1] and more than 0.5 µM in assay [2] (setting [3]).

On to `CN1C(=O)[C@@](O)(c2cccc(-c3csc(-c4c[nH]c5ncccc45)n3)c2)c2ncccc21` [Example 91, (R)-3-(3-(2-(1H-Pyrrolo[2,3-b]pyridin-3-yl)thiazol-4-yl)phenyl)-3-hydroxy-1-methyl-1,3-dihydro-2H-pyrrolo[3,2-b]pyridin-2-one], for which the IC50 in assay [1] and in assay [2] (setting [4]) was more than 0.5 µM in each case.

As to `O[C@@]1(c2cccc(-c3nc(-c4c[nH]c5ncccc45)cs3)c2)CCc2cccnc21` (single isomer, unassigned) [Example 22], the IC50 in assay [1] is not above 0.1 µM; in assay [2] (setting [3]), 0.1 to 0.5 µM.

With `C[C@@](O)(c1cccc(-c2csc(-c3c[nH]c4ncccc34)n2)c1)c1nccs1` (single isomer, unassigned) [Example 65], the IC50 in assay [1] is not above 0.1 µM; in assay [2] (setting [3]), more than 0.5 µM.

As to `CN1CC[C@@](O)(c2cccc(-n3cnc(-c4c[nH]c5ncccc45)c3)c2)C1=O` (single isomer, unassigned) [Example 124], the IC50 in assay [1] and in assay [2] (setting [4]) was more than 0.5 µM each time.

As for `O[C@@H]1C[C@@](O)(c2cccc(-c3csc(-c4c[nH]c5ncccc45)n3)c2)c2ncccc21` (single isomer, unassigned) [Example 101], the IC50 in assay [1] was 0.1 to 0.5 µM; in assay [2] (setting [3]), more than 0.5 µM.

For `CN1CC[C@@](O)(c2cccc(-c3nc(-c4ccnc5[nH]ccc45)cs3)c2)C1=O` [Example 127, (R)-3-(3-(4-(1H-Pyrrolo[2,3-b]pyridin-4-yl)thiazol-2-yl)phenyl)-3-hydroxy-1-methylpyrrolidin-2-one], the IC50 was not above 0.1 µM in assay [1] and more than 0.5 µM in assay [2] (setting [4]).

In the case of `O[C@@]1(c2cccc(-c3csc(-c4c[nH]c5nnccc45)n3)c2)CCn2ccnc21` [Example 88, (R)-7-(3-(2-(7H-pyrrolo[2,3-c]pyridazin-5-yl)thiazol-4-yl)phenyl)-6,7-dihydro-5H-pyrrolo[1,2-a]imidazol-7-ol], the results for the IC50 in assay [1] and in assay [2] (setting [3]) were not above 0.1 µM and more than 0.5 µM, respectively.

Regarding `CN1CC[C@@](O)(c2cccc(-c3nc(-c4c[nH]c5ncccc45)sc3F)c2)C1=O` (single isomer, unassigned) [Example 99], the values for the IC50 in assay [1] and in assay [2] (setting [4]) were not above 0.1 µM and more than 0.5 µM, respectively.

Regarding `C[C@@]1(O)C[C@](O)(c2cccc(-c3csc(-c4c[nH]c5ncccc45)n3)c2)c2ncccc21` (single isomer, unassigned) [Example 107], the IC50 in assay [1] and in assay [2] (setting [3]) was more than 0.5 µM throughout.

For the molecule `O[C@]1(c2cccc(-c3nc(-c4c[nH]c5ncccc45)cs3)c2)CCc2scnc21` [Example 58, (S)-4-(3-(4-(1H-Pyrrolo[2,3-b]pyridin-3-yl)thiazol-2-yl)phenyl)-5,6-dihydro-4H-cyclopenta[d]thiazol-4-ol], the IC50 in assay [1] was 0.1 to 0.5 µM; in assay [2] (setting [3]) it was more than 0.5 µM.

Regarding `O[C@@]1(c2cccc(-c3csc(-c4c[nH]c5ncc(Cl)c(F)c45)n3)c2)CCn2ccnc21` [Example 97, (R)-7-(3-(2-(5-Chloro-4-fluoro-1H-pyrrolo[2,3-b]pyridin-3-yl)thiazol-4-yl)phenyl)-6,7-dihydro-5H-pyrrolo[1,2-a]imidazol-7-ol], the IC50 in assay [1] is not above 0.1 µM; in assay [2] (setting [3]), 0.1 to 0.5 µM.

For `Cn1ccnc1[C@@](C)(O)c1cccc(-c2csc(-c3c[nH]c4ncccc34)n2)c1` (single isomer, unassigned) [Example 79], the IC50 in assay [1] and in assay [2] (setting [3]) was more than 0.5 µM each time.

For `O[C@H]1C[C@](O)(c2cccc(-c3csc(-c4c[nH]c5ncccc45)n3)c2)c2ncccc21` (single isomer, unassigned) [Example 102], the IC50 in assay [1] and in assay [2] (setting [3]) was more than 0.5 µM in each case.

In the case of `Cc1ccc2[nH]cc(-c3nc(-c4cccc([C@]5(O)CCN(C)C5=O)c4)cs3)c2n1` [Example 113, (R)-3-Hydroxy-1-methyl-3-(3-(2-(5-methyl-1H-pyrrolo[3,2-b]pyridin-3-yl)thiazol-4-yl)phenyl)pyrrolidin-2-one], the results for the IC50 in assay [1] and in assay [2] (setting [4]) were 0.1 to 0.5 µM and more than 0.5 µM, respectively.

As to `O[C@H]1C[C@@](O)(c2cccc(-c3csc(-c4c[nH]c5ncccc45)n3)c2)c2ncccc21` (single isomer, unassigned) [Example 103], the IC50 in assay [1] and in assay [2] (setting [3]) was more than 0.5 µM in each case.

On to `[2H]c1cnc2[nH]cc(-c3nc(-c4cccc([C@]5(O)CCn6ccnc65)c4)cs3)c2n1` [Example 63, (R)-7-(3-(2-(5H-Pyrrolo[2,3-b]pyrazin-7-yl-2-d)thiazol-4-yl)phenyl)-6,7-dihydro-5H-pyrrolo[1,2-a] imidazol-7-ol], for which the IC50 in assay [1] and in assay [2] (setting [3]) was not above 0.1 µM in each case.

Take `CN1CC[C@@](O)(c2cccc(-c3coc(-c4c[nH]c5ncccc45)c3)c2)C1=O` [Example 93, (R)-3-(3-(5-(1H-Pyrrolo[2,3-b]pyridin-3-yl)furan-3-yl)phenyl)-3-hydroxy-1-methylpyrrolidin-2-one]: the IC50 in assay [1] was not above 0.1 µM; in assay [2] (setting [4]) it was more than 0.5 µM.

As for `CN1CC[C@@](O)(c2cccc(-c3csc(-c4c[nH]c5ncc(C(=O)O)cc45)n3)c2)C1=O` [Example 51, (R)-3-(4-(3-(3-Hydroxy-1-methyl-2-oxopyrrolidin-3-yl)phenyl)thiazol-2-yl)-1H-pyrrolo[2,3-b]pyridine-5-carboxylic acid], the figures for the 50% inhibitory concentration (IC50) in assay [1] and in assay [2] (setting [4]) were not above 0.1 µM and more than 0.5 µM, respectively.

Regarding `Cc1cnc2c(-c3nc(-c4cccc([C@]5(O)CCn6ccnc65)c4)cs3)c[nH]c2n1` [Example 83, (R)-7-(3-(2-(3-Methyl-5H-pyrrolo[2,3-b]pyrazin-7-yl)thiazol-4-yl)phenyl)-6,7-dihydro-5H-pyrrolo[1,2-a]imidazol-7-ol], the IC50 in assay [1] was not above 0.1 µM; in assay [2] (setting [3]) it was 0.1 to 0.5 µM.

As for `O[C@]1(c2cccc(-c3nc(-c4c[nH]c5nccnc45)cs3)c2)CCn2ccnc21` [Example 12, (S)-7-(3-(4-(5H-Pyrrolo[2,3-b]pyrazin-7-yl)thiazol-2-yl)phenyl)-6,7-dihydro-5H-pyrrolo[1,2-a]imidazol-7-ol], the figures for the IC50 in assay [1] and in assay [2] (setting [3]) were 0.1 to 0.5 µM and more than 0.5 µM, respectively.

Turning to `O[C@@]1(c2cccc(-c3csc(-c4c[nH]c5nccnc45)n3)c2)C=Cn2ccnc21` [Example 13, (R)-7-(3-(2-(5H-Pyrrolo[2,3-b]pyrazin-7-yl)thiazol-4-yl)phenyl)-7H-pyrrolo[1,2-a]imidazol-7-ol], the results for the IC50 in assay [1] and in assay [2] (setting [3]) were not above 0.1 µM and more than 0.5 µM, respectively.

Take `O=C1Nc2cccnc2[C@@]1(O)c1cccc(-c2csc(-c3c[nH]c4ncccc34)n2)c1` (single isomer, unassigned) [Example 90]: the IC50 in assay [1] and in assay [2] (setting [4]) was more than 0.5 µM throughout.

Take `Cc1cnc2[nH]c(C)c(-c3nc(-c4cccc([C@]5(O)CCN(C)C5=O)c4)cs3)c2c1` [Example 74, (R)-3-(3-(2-(2,5-Dimethyl-1H-pyrrolo[2,3-b]pyridin-3-yl)thiazol-4-yl)phenyl)-3-hydroxy-1-methylpyrrolidin-2-one]: the IC50 in assay [1] and in assay [2] (setting [4]) was more than 0.5 µM in each case.

For `C[C@](O)(c1cccc(-c2csc(-c3c[nH]c4ncccc34)n2)c1)c1nccs1` (single isomer, unassigned) [Example 64], the IC50 in assay [1] and in assay [2] (setting [3]) was more than 0.5 µM throughout.

In the case of `Cc1c(-c2c[nH]c3ncccc23)n[nH]c1-c1cccc([C@]2(O)CCN(C)C2=O)c1` [Example 119, (R)-3-Hydroxy-1-methyl-3-(3-(4-methyl-3-(1H-pyrrolo[2,3-b]pyridin-3-yl)-1H-pyrazol-5-yl)phenyl)pyrrolidin-2-one], the IC50 in assay [1] and in assay [2] (setting [4]) was more than 0.5 µM throughout.
